Data as given in patent publication US20210290153A1, “DRUG DELIVERY DEVICES HAVING ADSORBED MEDICATION ADHERENCE MARKERS THEREON, PACKAGING INCLUDING THE SAME AND METHODS OF FORMING THE SAME” (Xhale, Inc., priority 2018, published 2021).

Settings: maltodextrin-coated vitamin tablet sealed approximately one week with sorbent pad loaded with approximately 200 mg 2-butanol; ingested; breath at approximately 10 minutes after ingestion
Experimental: Referring to FIG. 3, a vitamin tablet was dipped into a maltodextrin/water solution and the tablet was allowed to dry. A tiny sorbent pad loaded with approximately 200 mg of 2-butanol was added to the bottom of a tiny plastic vial to simulate a blister cavity. The dry coated tablet was then added to the vial and sealed via a screw top. After approximately one week, the vial was opened and the tablet was ingested by an individual.

Structure (SMILES): CCC(C)O (stereo not shown) [2-butanol]
- 2-butanone, a metabolite of 2-butanol, detected in the individual's breath: significant quantity
